From patent US20050197338A1, “Substituted pyrazole urea compounds for the treatment of inflammation” (priority 2003, published 2005)

What follows are compounds tested against T1, Rat IKK-2 (Rattus norvegicus, UniProt Q9QY78) (assay: Rat IKK-2 enzyme assay). Conditions: read-out: IC50 (μM) rIKK-2.
T1 sequence (Q9QY78 1-757): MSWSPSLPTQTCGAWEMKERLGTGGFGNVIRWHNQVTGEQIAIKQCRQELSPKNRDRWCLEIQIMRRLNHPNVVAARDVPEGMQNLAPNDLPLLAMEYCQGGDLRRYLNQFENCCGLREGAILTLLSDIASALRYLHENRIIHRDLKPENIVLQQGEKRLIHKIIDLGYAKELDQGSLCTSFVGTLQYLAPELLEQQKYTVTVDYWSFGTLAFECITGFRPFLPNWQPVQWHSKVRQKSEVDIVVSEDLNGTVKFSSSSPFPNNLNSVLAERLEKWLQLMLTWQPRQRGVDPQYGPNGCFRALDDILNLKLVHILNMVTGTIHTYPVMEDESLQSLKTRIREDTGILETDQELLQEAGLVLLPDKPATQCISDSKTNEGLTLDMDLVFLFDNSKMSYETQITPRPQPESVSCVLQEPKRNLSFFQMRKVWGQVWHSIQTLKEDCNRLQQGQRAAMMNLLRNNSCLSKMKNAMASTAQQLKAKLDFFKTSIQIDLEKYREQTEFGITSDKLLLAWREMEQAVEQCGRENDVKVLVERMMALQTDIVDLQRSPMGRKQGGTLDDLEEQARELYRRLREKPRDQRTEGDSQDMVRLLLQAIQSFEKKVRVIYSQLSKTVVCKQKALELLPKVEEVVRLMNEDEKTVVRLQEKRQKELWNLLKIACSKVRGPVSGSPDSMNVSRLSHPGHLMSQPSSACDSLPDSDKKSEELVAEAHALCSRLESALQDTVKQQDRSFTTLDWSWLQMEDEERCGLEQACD
Assay type: biochemical
Experimental: Kinase activity was measured using a biotinylated […] peptide (Gly-Leu-Lys-Lys-Glu-Arg-Leu-Leu-Asp-Asp-Arg-His-Asp-Ser32-Gly-Leu-Asp-Ser36-Met-Lys-Asp-Glu-Glu) (American Peptide Co.). 20 μL of the standard reaction mixture contained 5 μM biotinylated IκBα peptide, 0.1 μCi/reaction [γ-^33P] ATP (Amersham) (about 1×10^5 cpm), 1 μM ATP (Sigma), 1 mM DTT (Sigma), 2 mM MgCl2 (Sigma), 2 mM MnCl2 (Sigma), 10 mM NaF (Sigma), 25 mM Hepes (Sigma) buffer, pH. 7.6 and 20 μL enzyme solution (50 nM/rxn or 200 ng/rxn) and 10 μL inhibitor in a final volume of 50 μL. After incubation at 25° C. for 60 min, 150 μL resin was added to each well to stop the reaction. Resin was mixed and allowed to settle for 1 h and 50 μL of supernatant was removed to a Micolite 2 flat bottom plate (Dynex). 150 μL of scintillation fluid (Microscint 40) (Packard) was added to each well. Incorporation of [γ-^33P] ATP was measured using a Top-Count NXT (Packard).
`NC(=O)Nc1cn(-c2ccc(S(=O)(=O)c3ccc(F)cc3)cc2)nc1C(N)=O` [Example 204, 1-(1-(4-(4-fluorophenylsulfonyl)phenyl)-3-carbamoyl-1H-pyrazol-4-yl)urea] showed an IC50 of 0.023 µM.
With `COc1ccc(-n2cc(NC(N)=O)c(C(N)=O)n2)cc1Cl` [Example 209, 4-[(Aminocarbonyl)amino]-1-(3-chloro-4-methoxyphenyl)-1H-pyrazole-3-carboxamide] the IC50 was 1.08 µM.
`N#CCOc1ccc(F)cc1-c1cccc(-n2cc(NC(N)=O)c(C(N)=O)n2)c1` [Example 94, 4-[(aminocarbonyl)amino]-1-[2′-(cyanomethoxy)-5′-fluoro-1,1′-biphenyl-3-yl]-1H-pyrazole-3-carboxamide] was tested, and the IC50 was 0.22 µM.
`Cc1cc(-c2cccc(O)c2)ccc1-n1cc(NC(N)=O)c(C(N)=O)n1` [Example 5, 4-[(aminocarbonyl)amino]-1-(3′-hydroxy-3-methyl-1,1′-biphenyl-4-yl)-1H-pyrazole-3-carboxamide] showed an IC50 of 3.71 µM.
`NC(=O)Nc1cn(-c2ccc(-c3ccc(-c4nnn[nH]4)cc3)cc2)nc1C(N)=O` [Example 187, 4-[(aminocarbonyl)amino]-1-[4′-(1H-tetrazol-5-yl)-1,1′-biphenyl-4-yl]-1H-pyrazole-3-carboxamide] showed an IC50 of 0.441 µM.
`NC(=O)Nc1cn(-c2ccc(-c3ccccc3)cc2)nc1C(N)=O` [Example 101, 4-[(aminocarbonyl)amino]-1-(1,1′-biphenyl-4-yl)-1H-pyrazole-3-carboxamide] showed an IC50 of 1.89 µM.
Compound `Cc1cc(I)ccc1-n1cc(NC(N)=O)c(C(N)=O)n1` [Example 4, 1-(4-iodo-2-methyl-phenyl)-4-ureido-1H-pyrazole-3-carboxylic acid amide] has an IC50 of 1.93 µM.
Compound `NC(=O)Nc1cn(-c2ccc(Sc3ccccn3)cc2)nc1C(N)=O` [Example 205, 1-(3-carbamoyl-1-(4-(pyridin-2-ylthio)phenyl)-1H-pyrazol-4-yl)urea] has an IC50 of 0.258 µM.
In the case of `NC(=O)Nc1cn(-c2ccc(-c3ccc(C(=O)O)c(F)c3)cc2)nc1C(N)=O` [Example 97, 4′-{3-(aminocarbonyl)-4-[(aminocarbonyl)amino]-1H-pyrazol-1-yl}-3-fluoro-1,1′-biphenyl-4-carboxylic acid], the IC50 is reported as 0.18 µM.
Work on `CCOc1cc(-n2cc(NC(N)=O)c(C(N)=O)n2)ccc1Br` [Example 3, 4-[(aminocarbonyl)amino]-1-(4-bromo-3-ethoxyphenyl)-1H-pyrazole-3-carboxamide] yielded an IC50 of 0.787 µM.
With `NC(=O)COc1cccc(-c2ccc(-n3cc(NC(N)=O)c(C(N)=O)n3)cc2)c1` [Example 175, 4-[(aminocarbonyl)amino]-1-[3′-(2-amino-2-oxoethoxy)-1,1′-biphenyl-4-yl]-1H-pyrazole-3-carboxamide] the IC50 was 0.181 µM.
`NC(=O)Nc1cn(-c2ccc(I)cc2)nc1C(N)=O` [Example 215, 4-[(aminocarbonyl)amino]-1-(4-iodophenyl)-1H-pyrazole-3-carboxamide] was tested, and the IC50 was 0.091 µM.
Compound `NC(=O)Nc1cn(-c2ccc(Br)c(C(F)(F)F)c2)nc1C(N)=O` [Example 1, 4-[(aminocarbonyl)amino]-1-[4-bromo-3-(trifluoromethyl)phenyl]-1H-pyrazole-3-carboxamide] has an IC50 of 0.108 µM.
`NC(=O)Nc1cn(-c2ccc(S(=O)(=O)c3ccccc3F)cc2)nc1C(N)=O` [Example 194, 1-(1-(4-(2-fluorophenylsulfonyl)phenyl)-3-carbamoyl-1H-pyrazol-4-yl)urea] showed an IC50 of 0.173 µM.
`CNC(=O)Nc1cn(-c2ccc(Br)cc2)nc1C(N)=O` [Example 16, 1-(4-bromophenyl)-4-{[(methylamino)carbonyl]amino}-1H-pyrazole-3-carboxamide] was tested, and the IC50 was 2.83 µM.
Compound `NC(=O)Nc1cn(-c2ccc(-c3ccc(C(=O)OCc4cccc(F)c4)c(F)c3)cc2)nc1C(N)=O` [Example 163, 3-fluorobenzyl 4′-{3-(aminocarbonyl)-4-[(aminocarbonyl)amino]-1H-pyrazol-1-yl}-3-fluoro-1,1′-biphenyl-4-carboxylate] has an IC50 of 17.4 µM.
